Source: paper PMC6348443 (Journal of Medicinal Chemistry, 2018)
Structures can show the parent of a compound that is named as a salt. Where two headings read alike, the source gives them in different places.

Key:
MOR [1] = molecular target: T1, MOR (Homo sapiens, UniProt P35372); assay: [35S]GTPγS binding assay, CHO-hMOR membranes; assay type: biochemical; settings: for Emax: read-out: MOR % stim.; for functional profile at MOR (full/partial agonist): full agonist ≥85% of the response to DAMGO
T1 construct: host or cells: CHO (CHO-hMOR)

male CD1 mice = assay: acetic acid-induced writhing assay after sc administration; assay type: in vivo, mouse; settings: for ED50: Mus musculus, 0.5 h, read-out: ED50 (95% CI), mice, sc, inhibition of writhing 30 min after drug administration
KOR [2] = molecular target: T2, KOR (Cavia porcellus, UniProt P41144); assay: competition radioligand binding, guinea-pig brain membranes, [3H]U69,593; settings: for Ki: guinea-pig brain membranes, read-out: opioid receptor binding Ki KOR
T2 construct: Membranes were prepared from Sprague-Dawley rat brains or guinea-pig brains according to the described procedures; tissue Labortierkunde und Laborgenetik, Medizinische Universität Wien; host or cells: guinea-pig brain without cerebella

MOR [3] = molecular target: T3, MOR (Rattus norvegicus, UniProt P33535); assay: competition radioligand binding, rat brain membranes, [3H]DAMGO; settings: for Ki: rat brain membranes, read-out: opioid receptor binding Ki MOR; for increase in MOR binding affinity vs comparator: rat brain, 17b vs 4b, 16a/b vs 7a/b, 22a/b vs 7a, 7b and 9b, 14a vs 14b
T3 construct: Membranes were prepared from Sprague-Dawley rat brains or guinea-pig brains according to the described procedures; tissue Labortierkunde und Laborgenetik, Medizinische Universität Wien; host or cells: Sprague-Dawley rat brain without cerebella

DOR [4] = molecular target: T4, DOR (Homo sapiens, UniProt P41143); assay: competition radioligand binding, CHO cell membranes expressing human DOR, [3H]diprenorphine
T4 construct: host or cells: CHO (CHO-hDOR)
Method: (§1) Membranes from CHO cells expressing human opioid receptors were prepared in 50 mM Tris-HCl buffer (pH 7.7) according to a previously described procedure.[64] Cells expressing human opioid receptors grown at confluence were removed from the culture plates by scraping, homogenized in 50 mM Tris buffer (pH 7.7), using a Polytron homogenizer, then centrifuged once and washed by an additional centrifugation at 27 000g for 15 min, at 4 °C. The final pellet was resuspended in Tris buffer and stored at −80 °C until use. Protein content of brain and cell membrane preparation homogenates was determined by the method of Bradford using bovine serum albumin as the standard.[65]
(§2) Rat brain membranes were incubated with either [^3H]DAMGO (1 nM, 45 min, 35 °C) or [^3H][Ile^5,6]deltorphin II (0.5 nM, 45 min, 35 °C) for labeling MOR or DOR receptors, respectively. Guinea-pig brain membranes were incubated with [^3H]U69,593 (1 nM, 30 min, 30 °C) for labeling KOR. Binding assays with CHO cell membranes were conducted at 25 °C for 60 min using [^3H]DAMGO (1 nM) or [^3H]diprenorphine (0.2 nM) for labeling MOR or DOR, respectively. Nonspecific binding was determined using 10 μM naloxone (rodent brain) or 1–10 μM of the unlabeled counterpart of each radioligand (CHO cells). Reactions were terminated by rapid filtration through Whatman glass fiber GF/C filters. Filters were washed three times with 5 mL of ice-cold 50 mM Tris-HCl buffer (pH 7.4) using a Brandel M24R cell harvester (Gaithersburg, MD). Radioactivity retained on the filters was counted by liquid scintillation counting using a Beckman Coulter LS6500 (Beckman Coulter Inc., Fullerton, CA). All binding experiments were performed in duplicate and repeated at least three times.
(§3) aDetermined in competition radioligand binding assays using CHO cell membranes expressing
(§4) human MOR and DOR. Values represent the mean ± SEM of three independent experiments each

DOR [5] = molecular target: T4, DOR; assay: [35S]GTPγS binding assay, CHO-hDOR membranes; assay type: biochemical; settings: for EC50: [35S]GTPγS, CHO human DOR membranes; for Emax: relative to reference full agonist DPDPE, read-out: DOR % stim.; for increased agonist potency at DOR vs MOR: [35S]GTPγS EC50
DOR [6] = molecular target: T5, DOR (Rattus norvegicus, UniProt P33533); assay: competition radioligand binding, rat brain membranes, [3H][Ile5,6]deltorphin II; settings: rat brain membranes; read-out: opioid receptor binding Ki DOR
T5 construct: Membranes were prepared from Sprague-Dawley rat brains or guinea-pig brains according to the described procedures; tissue Labortierkunde und Laborgenetik, Medizinische Universität Wien; host or cells: Sprague-Dawley rat brain without cerebella

MOR [7] = molecular target: T1, MOR; assay: competition radioligand binding, CHO cell membranes expressing human MOR, [3H]DAMGO
Method: as §1, §2, §3, §4

KOR [8] = molecular target: T6, KOR (Homo sapiens, UniProt P41145); assay: [35S]GTPγS binding assay, CHO-hKOR membranes; assay type: biochemical; settings: for EC50: [35S]GTPγS, CHO human KOR membranes, read-out: KOR EC50; for Emax: relative to reference full agonist U69,593, read-out: KOR % stim.; for functional profile at KOR (full/partial agonist): partial agonist <85% of the response to U69,593
T6 construct: host or cells: CHO (CHO-hKOR)

[9] = [35S]GTPγS, CHO human MOR membranes, read-out: MOR EC50
[10] = relative to reference full agonist DAMGO

Compound | EC50 (MOR [1]; [9]) [nM] | Emax (MOR [1]; [10]) [%] | ED50 (male CD1 mice) [mg/kg] | Ki (KOR [2]) [nM] | Ki (MOR [3]) [nM] | Ki (DOR [4]) [nM] | EC50 (DOR [5]) [nM] | Emax (DOR [5]) [%] | Ki (DOR [6]) [nM] | Ki (MOR [7]) [nM] | EC50 (KOR [8]) [nM] | Emax (KOR [8]) [%] | increased agonist potency at DOR vs MOR (DOR [5]) | functional profile at KOR (full/partial agonist) (KOR [8]) | also measured
CO[C@@]12CCC(N[C@@H](CCC(=O)O)C(=O)O)[C@@H]3Oc4c(O)ccc5c4[C@@]31CCN(C)[C@@H]2C5 (stereo in doubt) [Compound 14a, (2S)-2-[(4,5α-Epoxy-3-hydroxy-14β-methoxy-17-methylmorphinan-6β-yl)-amino]pentanedioic Acid Dihydrochloride] | 3.11 ± 1.32 | 105 ± 3 | 0.0361 | 87.2 ± 4.2 | 1.45 ± 0.09 | 24 ± 11.8 | 10.8 ± 2.1 | 98 ± 3 | 9.03 ± 0.7 | 3.29 ± 0.61 | 1170 ± 448 | 68 ± 5 | – | – | increased KOR affinity vs 6β analogue 14b (KOR [2]; guinea-pig brain): 14 times; increase in MOR binding affinity vs comparator (MOR [3]): 8 times
CO[C@@]12CC[C@H](NC(C)C(=O)O)[C@@H]3Oc4c(O)ccc5c4[C@@]31CCN(C)[C@@H]2C5 (stereo in doubt) [Compound 15a, (2S)-2-[(4,5α-Epoxy-3-hydroxy-14β-methoxy-17-methylmorphinan-6α-yl)amino]propanoic Acid Dihydrochloride] | – | 100 ± 8 | – | 71.5 ± 9.6 | – | 14.9 ± 1.9 | 24.3 ± 5.3 | 106 ± 7 | 10.4 ± 0.01 | – | 254 ± 118 | 67 ± 13 | – | – | –
CO[C@@]12CC[C@@H](NC(C)C(=O)O)[C@@H]3Oc4c(O)ccc5c4[C@@]31CCN(C)[C@@H]2C5 (stereo in doubt) [Compound 15b, (2S)-2-[(4,5α-Epoxy-3-hydroxy-14β-methoxy-17-methylmorphinan-6β-yl)amino]propanoic Acid Dihydrochloride] | – | 102 ± 9 | – | 142 ± 33 | – | 11.5 ± 2.6 | 5.46 ± 2.68 | 106 ± 6 | 11.3 ± 0.9 | – | 1000 ± 192 | 86 ± 2 | 2–4 times | full agonists | –
CO[C@@]12CC[C@H](NCC(=O)O)[C@@H]3Oc4c(O)ccc5c4[C@@]31CCN(C)[C@@H]2C5 [Compound 2a] | 1.16 ± 0.59 | 99 ± 4 | 0.0357 | – | – | 18.2 ± 6.1 | – | – | – | 0.79 ± 0.08 | 399 ± 119 | 87 ± 4 | – | full agonists | –
CO[C@@]12CC[C@H](N[C@@H](Cc3ccccc3)C(=O)O)[C@@H]3Oc4c(O)ccc5c4[C@@]31CCN(C)[C@@H]2C5 [Compound 4a] | 0.38 ± 0.19 | 93 ± 8 | 0.0311 | – | – | 3.61 ± 1.2 | 0.39 ± 0.19 | 102 ± 2 | – | 0.81 ± 0.2 | 219 ± 2 | 39 ± 12 | – | partial agonist | EC50 (MOR [1]): < 1 nM; increased antinociceptive potency vs comparator (male CD1 mice; writhing assay, 3a vs 3b, 4a vs 4b, 16b vs 7a (so in the source)): 19 times
CO[C@@]12CC[C@@H](N[C@@H](Cc3ccccc3)C(=O)O)[C@@H]3Oc4c(O)ccc5c4[C@@]31CCN(C)[C@@H]2C5 [Compound 4b] | 6.76 ± 3.16 | 99 | 0.579 | – | – | 1.12 ± 0.23 | 0.48 ± 0.16 | 94 ± 8 | – | 4.15 ± 0.47 | 1170 ± 505 | 81 ± 9 | 14 times | – | functional profile at MOR (full/partial agonist) (MOR [1]): full agonist; MOR % stim. (MOR [1]; [10]): 99 ± 8%
CO[C@@]12CC[C@@H](N[C@@H](CCC(=O)O)C(=O)O)[C@@H]3Oc4c(O)ccc5c4[C@@]31CCN(C)[C@@H]2C5.Cl.Cl [Compound 14b, (2S)-2-[(4,5α-Epoxy-3-hydroxy-14β-methoxy-17-methylmorphinan-6β-yl)amino]pentanedioic Acid Dihydrochloride] | 12.7 ± 4.7 | 98 ± 4 | – | 1250 ± 70 | 11.6 ± 0.7 | 18 ± 3.5 | 4.6 ± 1.79 | 101 ± 3 | 7.64 ± 0.64 | 28.7 ± 7.9 | 2230 ± 238 | 76 ± 0.7 | 2–4 times | – | –
CO[C@@]12CC[C@H](N[C@H](Cc3ccccc3)C(=O)O)[C@@H]3Oc4c(O)ccc5c4[C@@]31CCN(C)[C@@H]2C5 [Compound 17a, (2R)-2-[(4,5α-Epoxy-3-hydroxy-14β-methoxy-17-methyl-morphinan-6α-yl)-amino]-3-phenylpropionic Acid Dihydrochloride] | 0.77 ± 0.24 | 96 ± 4 | < 0.02 | 76.4 ± 9.3 | 0.61 ± 0.01 | 5.26 ± 0.42 | 8.36 ± 0.28 | 95 ± 10 | 3.69 ± 0.59 | 0.85 ± 0.01 | 215 ± 32 | 80 ± 11 | – | full agonists | EC50 (MOR [1]): < 1 nM; ED50 (95% CI) (male CD1 mice; mice, inhibition of writhing 30 min after drug administration): 18.1 (8.37–39.2) μg/kg
CO[C@@]12CC[C@@H](N[C@H](C(=O)N[C@@H](Cc3ccc(O)cc3)C(=O)O)C(C)C)[C@@H]3Oc4c(O)ccc5c4[C@@]31CCN(C)[C@@H]2C5 [Compound 22b, (2S)-2-[[(4,5α-Epoxy-3-hydroxy-14β-methoxy-17-methylmorphinan-6β-yl)amino]-(2S)-3-methylbutyrylamino]-3-(4-hydroxyphenyl)propionic Acid] | 0.16 ± 0.06 | ~70 | – | 390 ± 49 | 0.44 ± 0.01 | – | 1.56 ± 0.83 | 89 ± 7 | 1.38 ± 0.22 | – | 1880 ± 594 | 63 ± 0.1 | – | – | increased MOR potency than 1 (MOR [1]; [35S]GTPγS EC50): 24 times; selectivity for MOR over DOR (MOR [1]; [35S]GTPγS EC50): 10 times; functional profile at MOR (full/partial agonist) (MOR [1]): partial agonists; lower KOR affinity vs 6α analogue 22a (KOR [2]; guinea-pig brain): about 6 times; KOR/MOR selectivity ratio (MOR [3]; from Ki, guinea-pig (KOR) and rat (MOR) brain): 886; increase in MOR binding affinity vs comparator (MOR [3]): 4 to 7 times; Ki (DOR [4]; CHO cell membranes expressing human DOR, read-out: Ki DOR): 1.39 ± 0.13 nM; functional profile at DOR (full/partial agonist) (DOR [5]; full agonist ≥85% of the response to DPDPE): full agonists; Ki (MOR [7]; CHO cell membranes expressing human MOR, read-out: Ki MOR): 0.64 ± 0.07 nM
